Results on 14 compounds are retold here after BindingDB's records for doi:10.1021/jm801427r (Universita Di Pisa, 2009).

For the assay, the target named is T1, Adenosine deaminase (Bos taurus, UniProt P56658).
T1 sequence (P56658 whole entry): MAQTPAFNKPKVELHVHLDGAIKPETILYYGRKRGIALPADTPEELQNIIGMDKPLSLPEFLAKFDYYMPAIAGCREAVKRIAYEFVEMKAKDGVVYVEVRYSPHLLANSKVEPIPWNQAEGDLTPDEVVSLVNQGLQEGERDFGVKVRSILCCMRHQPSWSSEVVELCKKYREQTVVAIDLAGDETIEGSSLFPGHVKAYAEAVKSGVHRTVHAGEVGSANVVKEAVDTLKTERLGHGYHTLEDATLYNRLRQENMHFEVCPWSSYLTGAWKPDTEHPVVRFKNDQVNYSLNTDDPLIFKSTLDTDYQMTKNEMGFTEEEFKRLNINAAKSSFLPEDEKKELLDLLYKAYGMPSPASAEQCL
The assay can be described thus: ADA Enzyme Inhibition Assay. Conditions: pH 7.2; 30 °C. Here is the method:
The activity of ADA was determined spectrophotometrically by monitoring the change in absorbance at 262 nm, due to the deamination of adenosine catalyzed by the enzyme. The change in adenosine concentration per min was determined using a Beckman DU-64 kinetics software program (Solf Pack TM Module). To correct for the background change in absorption, a reference blank containing all the assay components except the substrate was prepared. Each inhibitor concentration was tested in triplicate. The IC50 values were determined by linear regression analysis of dose-response curves. The Ki values were calculated from IC50 values by means of the Cheng and Prusoff.
Usually Ki stands for a dissociation constant, usually derived from enzyme kinetics or from competition with a known ligand. Lower therefore signals tighter binding. `COc1ccc(C(=O)Nc2ccc(Cn3cc4c(=O)[nH]cnc4n3)cc2)cc1` [4-methoxy-N-[4-({4-oxo-2H,4H,5H-pyrazolo[3,4-d]pyrimidin-2-yl}methyl)phenyl]benzamide] gave a Ki of 15.6 nM.

For `O=C(NCc1ccccc1)Nc1ccc(Cn2cc3c(=O)[nH]cnc3n2)cc1` [1-benzyl-3-[4-({4-oxo-2H,4H,5H-pyrazolo[3,4-d]pyrimidin-2-yl}methyl)phenyl]urea], the Ki turned out to be 85.7 nM.

As for `CCCCCC[C@H]([C@H](C)O)n1cnc2c(N)ncnc21` [(2S,3R)-3-(6-amino-9H-purin-9-yl)nonan-2-ol], the Ki came out at 1.14 nM.

In the case of `O=C(Nc1ccc(Cn2cc3c(=O)[nH]cnc3n2)cc1)Nc1ccc(C(F)(F)F)cc1` [3-[4-({4-oxo-2H,4H,5H-pyrazolo[3,4-d]pyrimidin-2-yl}methyl)phenyl]-1-[4-(trifluoromethyl)phenyl]urea], affinity was put at a Ki of 0.16 nM.

As for `O=C(Nc1ccc(Cn2cc3c(=O)[nH]cnc3n2)cc1)c1ccc(C(F)(F)F)cc1` [N-[4-({4-oxo-2H,4H,5H-pyrazolo[3,4-d]pyrimidin-2-yl}methyl)phenyl]-4-(trifluoromethyl)benzamide], the Ki was 0.51 nM.

On to `O=C(Nc1ccc(Cn2cc3c(=O)[nH]cnc3n2)cc1)c1ccccc1` [N-[4-({4-oxo-2H,4H,5H-pyrazolo[3,4-d]pyrimidin-2-yl}methyl)phenyl]benzamide], for which the affinity corresponds to a Ki of 12.7 nM.

Compound `O=C(Nc1ccc(F)cc1)Nc1ccc(Cn2cc3c(=O)[nH]cnc3n2)cc1` [1-(4-fluorophenyl)-3-[4-({4-oxo-2H,4H,5H-pyrazolo[3,4-d]pyrimidin-2-yl}methyl)phenyl]urea] registered an inhibitory constant (Ki) of 1.15 nM.

With `O=C(Nc1ccc(Cn2cc3c(=O)[nH]cnc3n2)cc1)c1ccc(F)cc1` [4-fluoro-N-[4-({4-oxo-2H,4H,5H-pyrazolo[3,4-d]pyrimidin-2-yl}methyl)phenyl]benzamide], affinity was put at a Ki of 0.96 nM.

Compound `O=C(Cc1ccccc1)Nc1ccc(Cn2cc3c(=O)[nH]cnc3n2)cc1` [N-[4-({4-oxo-2H,4H,5H-pyrazolo[3,4-d]pyrimidin-2-yl}methyl)phenyl]-2-phenylacetamide] yielded an inhibition constant (Ki) of 47.9 nM.

Regarding `O=C(Nc1ccccc1)Nc1ccc(Cn2cc3c(=O)[nH]cnc3n2)cc1` [3-[4-({4-oxo-2H,4H,5H-pyrazolo[3,4-d]pyrimidin-2-yl}methyl)phenyl]-1-phenylurea], affinity was put at a Ki of 2.42 nM.

For the compound `O=C(Nc1ccc(Cn2cc3c(=O)[nH]cnc3n2)cc1)Nc1ccc(OCc2ccccc2)cc1` [1-[4-(benzyloxy)phenyl]-3-[4-({4-oxo-2H,4H,5H-pyrazolo[3,4-d]pyrimidin-2-yl}methyl)phenyl]urea], the Ki came out at 108 nM.

Compound `O=C(Nc1ccc(Cc2ccccc2)cc1)Nc1ccc(Cn2cc3c(=O)[nH]cnc3n2)cc1` [1-(4-benzylphenyl)-3-[4-({4-oxo-2H,4H,5H-pyrazolo[3,4-d]pyrimidin-2-yl}methyl)phenyl]urea] returned a Ki of 186 nM.

`COc1ccc(NC(=O)Nc2ccc(Cn3cc4c(=O)[nH]cnc4n3)cc2)cc1` [1-(4-methoxyphenyl)-3-[4-({4-oxo-2H,4H,5H-pyrazolo[3,4-d]pyrimidin-2-yl}methyl)phenyl]urea] registered a Ki of 28.3 nM.

The compound `CN(C)c1ccc(NC(=O)Nc2ccc(Cn3cc4c(=O)[nH]cnc4n3)cc2)cc1` [1-[4-(dimethylamino)phenyl]-3-[4-({4-oxo-2H,4H,5H-pyrazolo[3,4-d]pyrimidin-2-yl}methyl)phenyl]urea] showed a Ki of 2.01 nM.
